Laboratory results taken from patent US20040024055A1, “Pharmaceutical composition containing the exract of saururus chinensis baill useful as an anticancer agent and a process for the preparation thereof” (priority 2000, published 2004).
Several values for one entry are separate records, joined by “and”; a condition that tells them apart may be missing. Equal entries are not always repeated.

What was measured:
[1] = test system: SK-Hep-1 liver cancer cell line; assay: MTT analysis, anticancer activity; assay type: cell-based, human; conditions: 48 hr
[2] = test system: PC-3 prostate cancer cell line; assay: MTT analysis, anticancer activity; assay type: cell-based, human; conditions: 48 hr
Protocol: (§2) To be specific, SK-Hep-1 cell, which is liver cancer cell line, was added to 96-well microplate (Falcon, USA) with the concentration of 3×10^5 cells/ml by 100 μl per well. Each extracted and separated substance dissolved in DMSO was added to the well by 100 μl for the final concentration to be from 50 μg/ml to 0.0244 μg/ml, with 200 μl of final volume. Each cell was cultured for 48 hr in a culture medium of 37° C. and 5% CO2. After cultivation, 20 μl of phosphate buffer solution containing 5 mg/ml of MTT (3-[4,5-dimethylthiazol-2-yl]-2,5-diphenyltetrazoliumbromide, Sigma Co.) reagent was added to each well, and then cultured for 4 hr. After taking 100 μl of supernant from each culture medium, 100 μl of 0.04N hydrochloric acid-isopropanol was added. After letting alone overnight, absorbance was measured at 560 nm using automatic Eliza detector (Molecular Divices Corp., USA). Anticancer activity of each extracted and separated substance was calculated from the absorbance value by Equation 1 and was expressed in terms of cell.
(§3) Average Existence Rate(%)=(Absorbance of Treated Group)/(Absorbance of Control Group)×100

[3] = test system: DU-145 prostate cancer cell line; assay: MTT analysis, anticancer activity; assay type: cell-based, human; conditions: 48 hr
Protocol: as §2, §3

[4] = test system: BT-20; assay: MTT analysis, anticancer activity; assay type: cell-based, human; conditions: 48 hr
[5] = test system: BT-549; assay: MTT analysis, anticancer activity; assay type: cell-based, human; conditions: MTT, 48 hr
[6] = test system: HS-578T; assay: MTT analysis, anticancer activity; assay type: cell-based, human; conditions: MTT, 48 hr
[7] = test system: MCF-7; assay: MTT analysis, anticancer activity; assay type: cell-based, human; conditions: MTT, 48 hr
[8] = test system: SK-BR-3; assay: MTT analysis, anticancer activity; assay type: cell-based, human; conditions: 48 hr
[9] = test system: T-47D; assay: MTT analysis, anticancer activity; assay type: cell-based, human; conditions: 48 hr
[10] = test system: HeLa; assay: MTT analysis, anticancer activity; assay type: cell-based, human; conditions: 48 hr
[11] = test system: ME-180; assay: MTT analysis, anticancer activity; assay type: cell-based, human; conditions: MTT, 48 hr
[12] = test system: HT-29; assay: MTT analysis, anticancer activity; assay type: cell-based, human; conditions: MTT, 48 hr
[13] = test system: LoVo; assay: MTT analysis, anticancer activity; assay type: cell-based, human; conditions: MTT, 48 hr
[14] = test system: SK-N-SH; assay: MTT analysis, anticancer activity; assay type: cell-based, human; conditions: 48 hr
[15] = test system: T98G; assay: MTT analysis, anticancer activity; assay type: cell-based, human; conditions: 48 hr
[16] = test system: HS-746T; assay: MTT analysis, anticancer activity; assay type: cell-based, human; conditions: MTT, 48 hr
[17] = test system: KATO-III; assay: MTT analysis, anticancer activity; assay type: cell-based, human; conditions: MTT, 48 hr
[18] = test system: A431; assay: MTT analysis, anticancer activity; assay type: cell-based, human; conditions: 48 hr
[19] = test system: Hep-2; assay: MTT analysis, anticancer activity; assay type: cell-based, human; conditions: MTT, 48 hr
[20] = test system: HT1080; assay: MTT analysis, anticancer activity; assay type: cell-based, human; conditions: 48 hr
[21] = test system: NCI-H69; assay: MTT analysis, anticancer activity; assay type: cell-based, human; conditions: MTT, 48 hr
[22] = test system: SK-MEL-28; assay: MTT analysis, anticancer activity; assay type: cell-based, human; conditions: 48 hr
[23] = test system: SK-OV-3; assay: MTT analysis, anticancer activity; assay type: cell-based, human; conditions: MTT, 48 hr
[24] = test system: HS683; assay: MTT analysis, anticancer activity; assay type: cell-based, human; conditions: 48 hr
[25] = test system: 293; assay: MTT analysis, cytotoxicity against normal cell line; assay type: cell-based, human; conditions: MTT, 48 hr
[26] = test system: 3T3-L1; assay: as above; assay type: cell-based, mouse; conditions: MTT, 48 hr
[27] = test system: CHO; assay: as above; assay type: cell-based, Chinese hamster; conditions: MTT, 48 hr
[28] = test system: CPAE; assay: as above; assay type: cell-based, bovine; conditions: MTT, 48 hr
[29] = test system: HS27; assay: as above; assay type: cell-based, human; conditions: MTT, 48 hr
[30] = test system: NIH-3T3; assay: as above; assay type: cell-based, mouse; conditions: MTT, 48 hr
[31] = test system: SK-Hep-1; assay: Adhesion of cancer cell to Matri-Gel; assay type: cell-based, human
Protocol: (§1) After treating HNP-98701 on tissue culture plate coated with the matrices, cancer cell was attached thereupon. To be specific, 50 μl/ml of […], 2 μg/ml of laminin, 2 μg/ml of collagen and 2 μg/ml of gelatin were coated on the surface of 96-well microplate (Corning Co.) per well. After solidifying for 2 hr, HNP-98701 was added to each well and treated for 1 hr. […] After treating the substances for 1 hr, cancer cell was added to each cell, and it was cultured for 3 hr. […] After culturing these cell lines for 3 hr, they were centrifuged. After collecting biomass only, it was washed with distilled water or PBS buffer solution for three times. […] Then, absorbance was measured at 560-405 nm with automatic Eliza detector (Molecular […] Corp., USA). […] Each experiment was performed for three times repeatedly.

[32] = test system: NIH-3T3; assay: Adhesion of cell to Matri-Gel; assay type: cell-based, mouse
Protocol: as §1

[33] = test system: Hep-2; assay: Adhesion of cancer cell to Laminin; assay type: cell-based, human
Protocol: as §1

[34] = test system: SK-Hep-1; assay: Adhesion of cancer cell to Laminin; assay type: cell-based, human
Protocol: as §1

[35] = test system: SK-MEL-28; assay: Adhesion of cancer cell to Laminin; assay type: cell-based, human
Protocol: as §1

[36] = test system: NIH-3T3; assay: Adhesion of cell to Laminin; assay type: cell-based, mouse
Protocol: as §1

[37] = test system: Hep-2; assay: Adhesion of cancer cell to Collagen; assay type: cell-based, human
Protocol: as §1

[38] = test system: SK-Hep-1; assay: Adhesion of cancer cell to Collagen; assay type: cell-based, human
Protocol: as §1

[39] = test system: SK-MEL-28; assay: Adhesion of cancer cell to Collagen; assay type: cell-based, human
Protocol: as §1

[40] = test system: NIH-3T3; assay: Adhesion of cell to Collagen; assay type: cell-based, mouse
Protocol: as §1

[41] = test system: Hep-2; assay: Adhesion of cancer cell to Gelatin; assay type: cell-based, human
Protocol: as §1

[42] = test system: SK-Hep-1; assay: Adhesion of cancer cell to Gelatin; assay type: cell-based, human
Protocol: as §1

[43] = test system: SK-MEL-28; assay: Adhesion of cancer cell to Gelatin; assay type: cell-based, human
Protocol: as §1

[44] = test system: NIH-3T3; assay: Adhesion of cell to Gelatin; assay type: cell-based, mouse
Protocol: as §1

N.N.[Cl][Pt][Cl] [Cisplatin]
IC50 SK-Hep-1 [1]: 5.4350 µg/mL and 4.2950 µg/mL
IC50 PC-3 [2]: 2.4867 µg/mL
IC50 DU-145 [3]: 3.0012 µg/mL
IC50 BT-20 [4]: 1.4578 µg/mL
IC50 BT-549 [5]: 1.2522 µg/mL
IC50 HS-578T [6]: 2.3317 µg/mL
IC50 MCF-7 [7]: 2.9412 µg/mL
IC50 SK-BR-3 [8]: 1.1748 µg/mL
IC50 T-47D [9]: 2.0468 µg/mL
IC50 HeLa [10]: 5.3358 µg/mL
IC50 ME-180 [11]: 0.9365 μg/ml
IC50 HT-29 [12]: 6.1224 µg/mL
IC50 LoVo [13]: 0.7318 µg/mL
IC50 SK-N-SH [14]: 2.1178 µg/mL
IC50 T98G [15]: 7.9216 µg/mL
IC50 HS-746T [16]: 2.7680 µg/mL
IC50 KATO-III [17]: 2.2875 µg/mL
IC50 A431 [18]: 0.4240 µg/mL
IC50 Hep-2 [19]: 0.5518 µg/mL
IC50 HT1080 [20]: 2.9512 µg/mL
IC50 NCI-H69 [21]: 0.6382 µg/mL
IC50 SK-MEL-28 [22]: 4.3157 µg/mL
IC50 SK-OV-3 [23]: 5.3442 µg/mL
IC50 HS683 [24]: 0.2490 µg/mL
IC50 293 [25]: 1.1678 µg/mL
IC50 3T3-L1 [26]: 2.7096 µg/mL
IC50 CHO [27]: 2.8462 µg/mL
IC50 CPAE [28]: 0.8252 µg/mL
IC50 HS27 [29]: 1.7853 µg/mL
IC50 NIH-3T3 [30]: 1.9756 µg/mL
Adhesion SK-Hep-1 (%) ([31]; 0.5 μg/ml): 96.41%
Adhesion SK-Hep-1 (%) ([31]; 5 μg/ml): 105.27%
Adhesion SK-Hep-1 (%) ([31]; 50 μg/ml): 108.26%
Adhesion NIH-3T3 (%) ([32]; 0.5 μg/ml): 105.67%
Adhesion NIH-3T3 (%) ([32]; 5 μg/ml): 102.40%
Adhesion NIH-3T3 (%) ([32]; 50 μg/ml): 101.06%
Adhesion Hep-2 (%) ([33]; 0.5 μg/ml): 102.63%
Adhesion Hep-2 (%) ([33]; 5 μg/ml): 101.25%
Adhesion Hep-2 (%) ([33]; 50 μg/ml): 95.87%
Adhesion SK-Hep-1 (%) ([34]; 0.5 μg/ml): 95.65%
Adhesion SK-Hep-1 (%) ([34]; 5 μg/ml): 93.53%
Adhesion SK-Hep-1 (%) ([34]; 50 μg/ml): 88.74%
Adhesion SK-MEL-28 (%) ([35]; 0.5 μg/ml): 110.19%
Adhesion SK-MEL-28 (%) ([35]; 5 μg/ml): 105.36%
Adhesion SK-MEL-28 (%) ([35]; 50 μg/ml): 101.16%
Adhesion NIH-3T3 (%) ([36]; 0.5 μg/ml): 93.86%
Adhesion NIH-3T3 (%) ([36]; 5 μg/ml): 94.94%
Adhesion NIH-3T3 (%) ([36]; 50 μg/ml): 92.45%
Adhesion Hep-2 (%) ([37]; 0.5 μg/ml): 92.23%
Adhesion Hep-2 (%) ([37]; 5 μg/ml): 89.35%
Adhesion Hep-2 (%) ([37]; 50 μg/ml): 82.83%
Adhesion SK-Hep-1 (%) ([38]; 0.5 μg/ml): 104.22%
Adhesion SK-Hep-1 (%) ([38]; 5 μg/ml): 104.57%
Adhesion SK-Hep-1 (%) ([38]; 50 μg/ml): 95.90%
Adhesion SK-MEL-28 (%) ([39]; 0.5 μg/ml): 98.46%
Adhesion SK-MEL-28 (%) ([39]; 5 μg/ml): 106.83%
Adhesion SK-MEL-28 (%) ([39]; 50 μg/ml): 117.62%
Adhesion NIH-3T3 (%) ([40]; 0.5 μg/ml): 112.51%
Adhesion NIH-3T3 (%) ([40]; 5 μg/ml): 108.91%
Adhesion NIH-3T3 (%) ([40]; 50 μg/ml): 98.94%
Adhesion Hep-2 (%) ([41]; 0.5 μg/ml): 97.20%
Adhesion Hep-2 (%) ([41]; 5 μg/ml): 100.13%
Adhesion Hep-2 (%) ([41]; 50 μg/ml): 91.07%
Adhesion SK-Hep-1 (%) ([42]; 0.5 μg/ml): 79.16%
Adhesion SK-Hep-1 (%) ([42]; 5 μg/ml): 74.84%
Adhesion SK-Hep-1 (%) ([42]; 50 μg/ml): 61.25%
Adhesion SK-MEL-28 (%) ([43]; 0.5 μg/ml): 92.48%
Adhesion SK-MEL-28 (%) ([43]; 5 μg/ml): 91.13%
Adhesion SK-MEL-28 (%) ([43]; 50 μg/ml): 86.40%
Adhesion NIH-3T3 (%) ([44]; 0.5 μg/ml): 111.43%
Adhesion NIH-3T3 (%) ([44]; 5 μg/ml): 110.48%
Adhesion NIH-3T3 (%) ([44]; 50 μg/ml): 100.10%
